According to patent publication US4081531A, “Antibiotic mimosamycin” (priority 1975, dated 1978):
In brackets after ≈: the same amount, converted by molar mass.

Experiments:
gram-positive bacteria = test: Antibacterial activity against gram-positive bacteria; assay type: cell-based
gram-negative bacteria = test: Antibacterial activity against gram-negative bacteria; assay type: cell-based
[1] = Tolerability in mice, intravenous injection; assay type: in vivo
Procedure: (§1) Remarks: Nutrient agar, 37° C, 48 hours for m. smegmatis. Sauton's liquid medium, 37° C, 4 weeks for other 3 strains. The strains SMR and Matsudo resistant to streptomycin at 1000 μg/ml or higher. Mice (18 - 20 g.) tolerated intravenous injection of 50 mg./kg. of mimosamycin.
(A) and 250 mg./kg.(B and C), respectively.

Solubility = assay type: physicochemical
[2] = test system: Staphylococcus aureus 209 P; test: Antimicrobial spectrum (MIC); assay type: cell-based; settings: 1% glucose nutrient agar, 37° C, 24 or 48 hours
[3] = test system: Staphylococcus aureus Smith; test: Antimicrobial spectrum (MIC); assay type: cell-based; settings: 1% glucose nutrient agar, 37° C, 24 or 48 hours
Staphylococcus albus = test: Antimicrobial spectrum (MIC); assay type: cell-based; settings: 1% glucose nutrient agar, 37° C, 24 or 48 hours
Staphylococcus citreus = test: Antimicrobial spectrum (MIC); assay type: cell-based; settings: 1% glucose nutrient agar, 37° C, 24 or 48 hours
[4] = test system: Streptococcus hemolyticus Coock; test: Antimicrobial spectrum (MIC); assay type: cell-based; settings: blood agar, 37° C, 24 or 48 hours
[5] = test system: Streptococcus hemolyticus 090R; test: Antimicrobial spectrum (MIC); assay type: cell-based; settings: blood agar, 37° C, 24 or 48 hours
Streptococcus salivarius = test: Antimicrobial spectrum (MIC); assay type: cell-based; settings: 1% glucose nutrient agar, 37° C, 24 or 48 hours
Streptococcus faecalis = test: Antimicrobial spectrum (MIC); assay type: cell-based; settings: 1% glucose nutrient agar, 37° C, 24 or 48 hours
[6] = test system: Bacillus subtilis PCI 219; test: Antimicrobial spectrum (MIC); assay type: cell-based; settings: 1% glucose nutrient agar, 37° C, 24 or 48 hours
Bacillus cereus = test: Antimicrobial spectrum (MIC); assay type: cell-based; settings: 1% glucose nutrient agar, 37° C, 24 or 48 hours
[7] = test system: Corynebacterium diphtheriae; test: Antimicrobial spectrum (MIC); assay type: cell-based; settings: 1% glucose nutrient agar, 37° C, 24 or 48 hours
Corynebacterium xerosis = test: Antimicrobial spectrum (MIC); assay type: cell-based; settings: 1% glucose nutrient agar, 37° C, 24 or 48 hours
Lactobacillus arabinosus = test: Antimicrobial spectrum (MIC); assay type: cell-based; settings: 1% glucose nutrient agar, 37° C, 24 or 48 hours
Nocardia asteoides = test: Antimicrobial spectrum (MIC); assay type: cell-based; settings: 37° C, 24 or 48 hours
[8] = test system: Mycobacterium smegmatis ATCC 607; test: Antimicrobial spectrum (MIC); assay type: cell-based; settings: 3% glycerin nutrient agar, 37° C, 24 or 48 hours
Mycobacterium phlei = test: Antimicrobial spectrum (MIC); assay type: cell-based; settings: 3% glycerin nutrient agar, 37° C, 24 or 48 hours
Mycobacterium avium = test: Antimicrobial spectrum (MIC); assay type: cell-based; settings: 3% glycerin nutrient agar, 37° C, 24 or 48 hours
Escherichia coli = test: Antimicrobial spectrum (MIC); assay type: cell-based; settings: 1% glucose nutrient agar, 37° C, 24 or 48 hours
Shigella dysenteriae = test: Antimicrobial spectrum (MIC); assay type: cell-based; settings: 1% glucose nutrient agar, 37° C, 24 or 48 hours
Salmonella typhimurium = test: Antimicrobial spectrum (MIC); assay type: cell-based; settings: 1% glucose nutrient agar, 37° C, 24 or 48 hours
Klebsiella pneumonaie = test: Antimicrobial spectrum (MIC); assay type: cell-based; settings: 1% glucose nutrient agar, 37° C, 24 or 48 hours
Serratia marcescens = test: Antimicrobial spectrum (MIC); assay type: cell-based; settings: 1% glucose nutrient agar, 37° C, 24 or 48 hours
Pseudomonas aeruginosa = test: Antimicrobial spectrum (MIC); assay type: cell-based; settings: 1% glucose nutrient agar, 37° C, 24 or 48 hours
Brucella abortus = assay type: cell-based; settings: blood agar, 37° C, 24 or 48 hours
Candida albicans = test: Antimicrobial spectrum (MIC); assay type: cell-based; settings: Sabouraud dextrose agar, 27° C, 48 hours
Saccharomyces cerevisiae = test: Antimicrobial spectrum (MIC); assay type: cell-based; settings: Sabouraud dextrose agar, 27° C, 48 hours
Tolura rubra = test: Antimicrobial spectrum (MIC); assay type: cell-based; settings: Sabouraud dextrose agar, 27° C, 48 hours
Penicillium glaucum = test: Antimicrobial spectrum (MIC); assay type: cell-based; settings: Sabouraud dextrose agar, 27° C, 48 hours
Aspergillus niger = test: Antimicrobial spectrum (MIC); assay type: cell-based; settings: Sabouraud dextrose agar, 27° C, 48 hours
Aspergillus oryzae = test: Antimicrobial spectrum (MIC); assay type: cell-based; settings: Sabouraud dextrose agar, 27° C, 48 hours
Mucor mucedo = test: Antimicrobial spectrum (MIC); assay type: cell-based; settings: Sabouraud dextrose agar, 27° C, 48 hours
[9] = test system: Trichophyton mentagrophytes; test: Antimicrobial spectrum (MIC); assay type: cell-based; settings: Sabouraud dextrose agar, 27° C, 72 hours
[10] = test system: Mycobacterium tuberculosis H37 RV; test: Antimicrobial activity (MIC) against tubercle bacilli; assay type: cell-based; settings: H37RV, 672 h, Sauton's liquid medium, 37° C, 4 weeks
[11] = test system: Mycobacterium bovis No. 10; test: microbe, parasite or virus in culture; assay type: cell-based; settings: Mycobacterium tuberculosis variant bovis, NO.10, 672 h
[12] = test system: Mycobacterium smegmatis ATCC607; test: Antimicrobial activity (MIC) of mimosamycin; assay type: cell-based; settings: Mycolicibacterium smegmatis, Nutrient agar, 37° C, 48 hours
Procedure: as §1

fungi = test: Activity against fungi; assay type: cell-based; settings: at 50 μg/ml
acid-fast bacteria = test: Activity against acid-fast bacteria; assay type: cell-based
[13] = test system: highly streptomycin-resistant strains of human tubercle bacilli; assay type: cell-based; settings: as is against normal strains of tubercle bacilli
tubercle bacilli = test: Effect against tubercle bacilli; assay type: cell-based
[14] = chlorocarcins, summary of Table 5

chlorocarcin B
antibacterial activity against gram-positive bacteria (gram-positive bacteria; [14]): mainly show an antibacterial activity
antibacterial activity against most gram-negative bacteria (gram-negative bacteria; [14]): little antibacterial activity
toxicity ([1]; mice): relatively low toxicity
Solubility (Solubility; Lower alcohols, chloroform, esters, acetone, benzene, ethyl ether): Easily soluble
Solubility (Solubility; Water): Insoluble
Solubility (Solubility; n-hexane): Sparingly soluble
MIC [2]: 12.5 µg/mL
MIC [3]: 12.5 µg/mL
MIC (Staphylococcus albus): 50 µg/mL
MIC (Staphylococcus citreus): 25 µg/mL
MIC [4]: 6.25 µg/mL
MIC [5]: 100 µg/mL
MIC (Streptococcus salivarius): 50 µg/mL
MIC (Streptococcus faecalis): > 100 µg/mL
MIC [6]: 25 µg/mL
MIC (Bacillus cereus): 50 µg/mL
MIC [7]: 0.05 µg/mL
MIC (Corynebacterium xerosis): 0.39 µg/mL
MIC (Lactobacillus arabinosus): 50 µg/mL
MIC (Nocardia asteoides): 50 µg/mL
MIC [8]: > 100 µg/mL
MIC (Mycobacterium phlei): > 100 µg/mL
MIC (Mycobacterium avium): > 100 µg/mL
MIC (Escherichia coli): > 100 µg/mL
MIC (Shigella dysenteriae): > 100 µg/mL
MIC (Salmonella typhimurium): > 100 µg/mL
MIC (Klebsiella pneumonaie): 50 µg/mL
MIC (Serratia marcescens): > 100 µg/mL
MIC (Pseudomonas aeruginosa): > 100 µg/mL
MIC (Brucella abortus): > 100 µg/mL
MIC (Candida albicans): > 100 µg/mL
MIC (Saccharomyces cerevisiae): > 100 µg/mL
MIC (Tolura rubra): > 100 µg/mL
MIC (Penicillium glaucum): > 100 µg/mL
MIC (Aspergillus niger): > 100 µg/mL
MIC (Aspergillus oryzae): > 100 µg/mL
MIC (Mucor mucedo): > 100 µg/mL
MIC [9]: > 100 µg/mL

COC1=C(C)C(=O)c2cc(=O)n(C)cc2C1=O [mimosamycin]
MIC [10]: 1.56 µg/mL (≈ 6.69 µM)
MIC [11]: 6.25 µg/mL (≈ 26.8 µM)
MIC [12]: 25 µg/mL (≈ 107 µM)
activity against gram-positive bacteria (gram-positive bacteria; mimosamycin): active against gram-positive bacteria to a certain extent
activity against gram-negative bacteria (gram-negative bacteria; at 50 μg/ml): non-effective
activity against fungi (fungi): non-effective
activity against acid-fast bacteria (acid-fast bacteria): active
activity against highly streptomycin-resistant strains of human tubercle bacilli [13]: effective
MTD ([1]; mouse, in vivo, mice 18 - 20 g, read-out: tolerated dose): 50 mg/kg
Solubility (Solubility; Ethyl ether, n-hexane): Sparingly soluble
Solubility (Solubility; Methanol, ethanol, chloroform, esters, acetone): Easily soluble
Solubility (Solubility; Water): Insoluble
effect against tubercle bacilli (tubercle bacilli): specifically effective
